According to patent US11584734B2, “Tricyclic compounds as histone methyltransferase inhibitors” (GLOBAL BLOOD THERAPEUTICS, INC., priority 2017, dated 2023):

target: T1, G9a (Homo sapiens, UniProt Q96KQ7); assay: G9a AlphaLISA enzymatic activity assay; type: biochemical; details: negative log of IC50 in molar, 0.15 nM G9a, 15 uM S-adenosyl-methionine, 100 nM biotinylated histone 3 peptide (1-21)
T1 sequence (Q96KQ7 1-1210): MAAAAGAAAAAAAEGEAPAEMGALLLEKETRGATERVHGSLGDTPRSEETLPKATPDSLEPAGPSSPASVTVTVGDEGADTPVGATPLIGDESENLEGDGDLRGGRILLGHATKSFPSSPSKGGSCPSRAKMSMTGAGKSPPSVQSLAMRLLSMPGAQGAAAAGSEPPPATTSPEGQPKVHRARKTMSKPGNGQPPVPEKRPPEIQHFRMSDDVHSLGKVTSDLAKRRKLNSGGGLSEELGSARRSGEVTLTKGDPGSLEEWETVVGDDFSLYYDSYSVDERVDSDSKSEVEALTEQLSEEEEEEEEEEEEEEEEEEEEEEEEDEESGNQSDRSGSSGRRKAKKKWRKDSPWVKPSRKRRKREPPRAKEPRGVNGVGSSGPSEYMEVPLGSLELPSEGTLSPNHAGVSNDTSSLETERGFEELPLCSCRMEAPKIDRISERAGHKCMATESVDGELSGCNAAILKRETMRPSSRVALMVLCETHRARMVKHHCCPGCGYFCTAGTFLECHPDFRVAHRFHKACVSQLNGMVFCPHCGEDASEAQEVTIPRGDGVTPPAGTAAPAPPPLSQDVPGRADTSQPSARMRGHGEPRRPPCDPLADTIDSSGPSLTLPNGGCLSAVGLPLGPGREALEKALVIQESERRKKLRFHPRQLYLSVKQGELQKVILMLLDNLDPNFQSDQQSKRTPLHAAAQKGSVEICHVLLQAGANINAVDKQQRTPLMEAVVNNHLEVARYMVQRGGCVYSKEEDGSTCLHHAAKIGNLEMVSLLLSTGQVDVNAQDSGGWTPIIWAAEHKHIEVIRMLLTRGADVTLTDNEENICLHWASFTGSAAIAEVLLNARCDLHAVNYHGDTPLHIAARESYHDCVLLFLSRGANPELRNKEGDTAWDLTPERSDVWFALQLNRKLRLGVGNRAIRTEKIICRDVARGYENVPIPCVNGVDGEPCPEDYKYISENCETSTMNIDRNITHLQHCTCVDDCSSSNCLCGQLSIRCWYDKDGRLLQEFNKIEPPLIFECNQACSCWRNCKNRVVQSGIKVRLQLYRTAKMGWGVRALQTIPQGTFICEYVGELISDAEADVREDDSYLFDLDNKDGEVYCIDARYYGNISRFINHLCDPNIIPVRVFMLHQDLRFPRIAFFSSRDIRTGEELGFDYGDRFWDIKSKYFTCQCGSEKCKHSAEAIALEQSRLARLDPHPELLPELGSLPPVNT
Text: The G9a AlphaLISA assay was used to detect the methyl modifications of a biotinylated histone H3 peptide by the compounds. These modifications are done by the histone methyl transferase activity of the G9a enzyme. The assay consists of reading a chemiluminescent signal at 615 nm; this signal is generated by a laser excitation at 680 nm that transfers a reactive singlet oxygen between the donor beads and acceptor beads. Donor beads are streptavidin conjugated and bind to the biotin on the peptide. Acceptor beads are conjugated with an antibody that recognizes the specific G9a methyl mark on the peptide. If there is a methyl mark on the peptide, the acceptor beads will bind to the peptide. Upon binding, the acceptor beads will be in close proximity (<200 nm) of the donor beads and when the donor beads are excited, the transfer of the oxygen can occur and a strong signal will be generated. If there is no methyl mark, the interaction between beads will not occur and signal will be at background levels.
For the assay, the following buffer was used to set up reactions: 50 mM Tris-HCl pH9, 50 mM NaCl, 0.01% Tween-20 and 1 mM DTT (added fresh prior to starting the reactions). […] The reaction is incubated at rt for 1 hour and subsequently quenched by the addition of the acceptor beads (anti-H3k9me2 AlphaLISA acceptor beads, PerkinElmer #AL117) at a final concentration of 20 ug/mL. The acceptor beads are incubated for 1 hour. After 1 hour, the donor beads are added at a final concentration of 20 ug/mL (Alpha Streptavidin donor beads, PerkinElmer #6760002). Donor beads are incubated for 0.5 hours. Both donor and acceptor beads are resuspended in AlphaLISA 5X Epigenetics Buffer 1 Kit (PerkinElmer #AL008) prior to addition to the reaction. All manipulations and incubations with the donor and acceptor beads are done in subdued light. Signal is detected in an EnVision plate reader in Alpha mode. See ACS Med Chem Lett. 2014; 5(2):205-9.
Percent inhibition was calculated for each compound dilution and the concentration that produced 50% inhibition was calculated. This value is presented as the pIC50, which is the negative log of the IC50 value in molar.

Point of comparison: COC[C@H](C)Nc1c2c(nc3cc(OCCCN4CCCC4)c(OC)cc13)CCCCC2 [Example 38, 2-methoxy-N-[(2S)-1-methoxypropan-2-yl]-3-[3-(pyrrolidin-1-yl)propoxy]-6H,7H,8H,9H,10H-cyclohepta[b]quinolin-11-amine], IC50 214 nM. Against it:
- CCNc1c2c(nc3cc(OCCCN4CCCC4)c(OC(F)F)cc13)CCC2 [Example 30, 7-(difluoromethoxy)-N-ethyl-6-[3-(pyrrolidin-1-yl)propoxy]-1H,2H,3H-cyclopenta[b]quinolin-9-amine] — 6-fold lower, 35.5 nM
- CCCNc1c2c(nc3cc(OCCCN4CCCC4)c(OC(F)F)cc13)CCC2 [Example 31, 7-(difluoromethoxy)-N-propyl-6-[3-(pyrrolidin-1-yl)propoxy]-1H,2H,3H-cyclopenta[b]quinolin-9-amine] — 1.9-fold lower, 110 nM
- COCCNc1c2c(nc3cc(OCCCN4CCCC4)c(OC(F)F)cc13)CCC2 [Example 32, 7-(difluoromethoxy)-N-(2-methoxyethyl)-6-[3-(pyrrolidin-1-yl)propoxy]-1H,2H,3H-cyclopenta[b]quinolin-9-amine] — 2-fold lower, 107 nM
- COCCCNc1c2c(nc3cc(OCCCN4CCCC4)c(OC(F)F)cc13)CCC2 [Example 33, 7-(difluoromethoxy)-N-(3-methoxypropyl)-6-[3-(pyrrolidin-1-yl)propoxy]-1H,2H,3H-cyclopenta[b]quinolin-9-amine] — within 1.5-fold, 145 nM
- CNc1c2c(nc3cc(OCCCN4CCCC4)c(OC(F)F)cc13)CCC2 [Example 34, 7-(difluoromethoxy)-N-methyl-6-[3-(pyrrolidin-1-yl)propoxy]-1H,2H,3H-cyclopenta[b]quinolin-9-amine] — 7.4-fold lower, 28.8 nM
- CC(C)Nc1c2c(nc3cc(OCCCN4CCCC4)c(OC(F)F)cc13)CCC2 [Example 35, 7-(difluoromethoxy)-N-(propan-2-yl)-6-[3-(pyrrolidin-1-yl)propoxy]-1H,2H,3H-cyclopenta[b]quinolin-9-amine] — 3.4-fold lower, 63.1 nM
- CNc1c2c(nc3cc(OCCCN4CCCC4)c(OC)cc13)C1CCCC2C1 (stereo not shown) [Example 36, 7-methoxy-N-methyl-6-[3-(pyrrolidin-1-yl)propoxy]-3-azatetracyclo[10.3.1.0^{2,11}.0^{4,9}]hexadeca-2,4,6,8,10-pentaen-10-amine] — 11-fold lower, 19.5 nM
- COCCNc1c2c(nc3cc(OCCCN4CCCC4)c(OC)cc13)CCCCC2 [Example 37, 2-methoxy-N-(2-methoxyethyl)-3-[3-(pyrrolidin-1-yl)propoxy]-6H,7H,8H,9H,10H-cyclohepta[b]quinolin-11-amine] — 2-fold lower, 107 nM
- COc1cc2c(NCCC(C)(C)O)c3c(nc2cc1OCCCN1CCCC1)CCCCC3 [Example 39, 4-({2-methoxy-3-[3-(pyrrolidin-1-yl)propoxy]-6H,7H,8H,9H,10H-cyclohepta[b]quinolin-11-yl}amino)-2-methylbutan-2-ol] — 3.7-fold lower, 57.5 nM
- COc1cc2c(NCC3CC3)c3c(nc2cc1OCC(O)CN1CCCC1)CCC3 (stereo not shown) [Example 40, 1-({9-[(cyclopropylmethyl)amino]-7-methoxy-1H,2H,3H-cyclopenta[b]quinolin-6-yl}oxy)-3-(pyrrolidin-1-yl)propan-2-ol] — 5.3-fold lower, 40.7 nM
- CCOCCNc1c2c(nc3cc(COCCN4CCCC4)c(OC)cc13)CCC2 [Example 41, N-(2-ethoxyethyl)-7-methoxy-6-{[2-(pyrrolidin-1-yl)ethoxy]methyl}-1H,2H,3H-cyclopenta[b]quinolin-9-amine] — 6.3-fold lower, 33.9 nM
- FC(F)Oc1cc2c(NCC3CC3)c3c(nc2cc1OCCCN1CCCC1)CCC3 [Example 42, N-(cyclopropylmethyl)-7-(difluoromethoxy)-6-[3-(pyrrolidin-1-yl)propoxy]-1H,2H,3H-cyclopenta[b]quinolin-9-amine] — 2.2-fold lower, 97.7 nM
- COCCNc1c2c(nc3cc(OCCCN4CCCC4)c(OC)cc13)C1CCCC2C1 (stereo not shown) [Example 43, 7-methoxy-N-(2-methoxyethyl)-6-[3-(pyrrolidin-1-yl)propoxy]-3-azatetracyclo[10.3.1.0^{2,11}.0^{4,9}]hexadeca-2,4,6,8,10-pentaen-10-amine] — 5.4-fold lower, 39.8 nM
- COc1cc2c(NCC3CC3)c3c(nc2cc1OC[C@H](C)CN1CCCC1)CCC3 [Example 44, N-(cyclopropylmethyl)-7-methoxy-6-[(2R)-2-[(pyrrolidin-1-yl)methyl]propoxy]-1H,2H,3H-cyclopenta[b]quinolin-9-amine] — within 1.5-fold, 166 nM
- COc1cc2c(NC(C)C)c3c(nc2cc1OCCOCCN(C)C)CCC3 [Example 45, 6-{2-[2-(dimethylamino)ethoxy]ethoxy}-7-methoxy-N-(propan-2-yl)-1H,2H,3H-cyclopenta[b]quinolin-9-amine] — 12-fold lower, 17.4 nM
- CNc1c2c(nc3cc(OCCCNC(C)=O)c(OC)cc13)CCC2 [Example 46, N-(3-{[7-methoxy-9-(methylamino)-1H,2H,3H-cyclopenta[b]quinolin-6-yl]oxy}propyl)acetamide] — 14-fold higher, 3090 nM
- CNc1c2c(nc3cc(OCCCN4C5CCC4CC5)c(OC)cc13)CCC2 [Example 47, 6-(3-{7-azabicyclo[2.2.1]heptan-7-yl}propoxy)-7-methoxy-N-methyl-1H,2H,3H-cyclopenta[b]quinolin-9-amine] — 6.3-fold higher, 1350 nM
- CNc1c2c(nc3cc(OCCCN4CCCC4)c(OC(F)(F)F)cc13)CCC2 [Example 48, N-methyl-6-[3-(pyrrolidin-1-yl)propoxy]-7-(trifluoromethoxy)-1H,2H,3H-cyclopenta[b]quinolin-9-amine] — 2.8-fold higher, 603 nM
- CCNc1c2c(nc3cc(OCCCN4CCCC4)c(OC(F)(F)F)cc13)CCC2 [Example 49, N-ethyl-6-[3-(pyrrolidin-1-yl)propoxy]-7-(trifluoromethoxy)-1H,2H,3H-cyclopenta[b]quinolin-9-amine] — 3-fold higher, 646 nM
- COCCNc1c2c(nc3cc(OCCCN4CCCC4)c(OC(F)(F)F)cc13)CCC2 [Example 50, N-(2-methoxyethyl)-6-[3-(pyrrolidin-1-yl)propoxy]-7-(trifluoromethoxy)-1H,2H,3H-cyclopenta[b]quinolin-9-amine] — 3.6-fold higher, 776 nM
- CNc1c2c(nc3cc(OCCCN(C)CCF)c(OC)cc13)CCC2 [Example 55, 6-{3-[(2-fluoroethyl)(methyl)amino]propoxy}-7-methoxy-N-methyl-1H,2H,3H-cyclopenta[b]quinolin-9-amine] — 3.8-fold higher, 813 nM
- CCNc1c2c(nc3cc(OCCCN(C)CCF)c(OC)cc13)CCC2 [Example 56, N-ethyl-6-{3-[(2-fluoroethyl)(methyl)amino]propoxy}-7-methoxy-1H,2H,3H-cyclopenta[b]quinolin-9-amine] — 4.9-fold higher, 1050 nM
- CCOCCNc1c2c(nc3cc(OCCCN(C)CCF)c(OC)cc13)CCC2 [Example 57, N-(2-ethoxyethyl)-6-{3-[(2-fluoroethyl)(methyl)amino]propoxy}-7-methoxy-1H,2H,3H-cyclopenta[b]quinolin-9-amine] — 6.9-fold higher, 1480 nM
- CCN(CCCOc1cc2nc3c(c(NC)c2cc1OC)CCC3)CCOC [Example 58, 6-{3-[ethyl(2-methoxyethyl)amino]propoxy}-7-methoxy-N-methyl-1H,2H,3H-cyclopenta[b]quinolin-9-amine] — 13-fold higher, 2750 nM
